The source of these data is ChEMBL document CHEMBL3045817, “Magnetic resonance assays of haloperidol in human serum albumin” (Med Chem Res, 2011).

For one series, the target named is Albumin (Homo sapiens, UniProt P02768). Put plainly: Binding affinity to Homo sapiens (human) serum albumin at 1.5 to 800 ug/ml by NMR analysis. The class given is ADME. As to conditions: isolated protein; call rule not given here.
Series [1] in a line: Bioavailability in Homo sapiens (human) at 2.5 mg, intranasal after 15 min. The class given is ADME, organism-based. As to conditions: in vivo, inhaled or intranasal.
Series [2] can be described thus: Bioavailability in Homo sapiens (human) at 2.5 mg, intramuscular after 15 min. The class given is ADME, organism-based. As to conditions: in vivo, im.
Series [3] in a line: Plasma protein binding in Homo sapiens (human). The class given is ADME, cell-free. As to conditions: read-out: PPB (converted).
In the next series the test system is Brain. Briefly: Drug uptake in healthy Homo sapiens (human) brain by NMR analysis. The class given is ADME, tissue-based.
Series [4] is described as follows: Drug uptake in depression pateint brain at 20 mg/day after 3 days by NMR analysis. As to conditions: human, read-out: Drug uptake. The class given is ADME.

Sequence of Albumin (P02768 whole entry): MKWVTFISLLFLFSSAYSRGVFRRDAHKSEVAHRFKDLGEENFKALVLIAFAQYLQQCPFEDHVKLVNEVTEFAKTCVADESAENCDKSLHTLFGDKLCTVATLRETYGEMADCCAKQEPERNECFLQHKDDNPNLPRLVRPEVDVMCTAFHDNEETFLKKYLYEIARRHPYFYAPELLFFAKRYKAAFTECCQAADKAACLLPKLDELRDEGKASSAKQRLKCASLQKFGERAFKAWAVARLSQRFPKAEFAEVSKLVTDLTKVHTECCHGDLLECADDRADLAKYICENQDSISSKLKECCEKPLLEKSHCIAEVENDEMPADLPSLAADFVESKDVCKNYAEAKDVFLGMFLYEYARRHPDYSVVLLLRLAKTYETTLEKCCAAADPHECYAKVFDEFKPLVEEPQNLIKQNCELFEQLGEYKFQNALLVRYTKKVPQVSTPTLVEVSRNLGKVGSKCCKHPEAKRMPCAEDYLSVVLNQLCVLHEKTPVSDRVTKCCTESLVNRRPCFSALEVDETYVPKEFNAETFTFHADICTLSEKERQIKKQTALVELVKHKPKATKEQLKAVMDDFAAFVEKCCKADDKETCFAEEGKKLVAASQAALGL

`O=C(CCCN1CCC(O)(c2ccc(Cl)cc2)CC1)c1ccc([19F])cc1` [[19F]-HALOPERIDOL]: the result at Albumin was Active.

For orientation: bioavailability means the share of a dose that reaches the circulation, judged against a reference dose that is usually intravenous. Turning to `O=C(CCCN1CCC(O)(c2ccc(Cl)cc2)CC1)c1ccc(F)cc1` [HALOPERIDOL], the bioavailability turned out to be 63.8% in series [1] and 48.6% in series [2]. Besides, the fraction unbound in series [3] was 0.1. Turning to `OCCN1CCN(CCCN2c3ccccc3Sc3ccc(C(F)(F)F)cc32)CC1` [FLUPHENAZINE], the Drug uptake with Brain turned out to be 4 µg/mL. On the same count and under the same terms, for `CN1CCN(CCCN2c3ccccc3Sc3ccc(C(F)(F)F)cc32)CC1` [TRIFLUOPERAZINE] the value was 4 µg/mL. Take `Fc1ccc([C@@H]2CCNC[C@H]2COc2ccc3c(c2)OCO3)cc1` [PAROXETINE]: in series [4], the concentration at 72 h was 6000 ng/mL.
